Data taken from patent US12544463B2, “Deuterium substituted positron emission tomography (PET) imaging agents and their pharmacological application” (Five Eleven Pharma Inc., priority 2017, dated 2026).
Values joined by “and” are separate entries in the source; they are usually repeats but may differ in a detail not shown here. Equal entries are not always repeated.

Tests used:
[1] = Biodistribution in rats: ^18F-FP-(+)DTBZ vs ^18F-FP-DTBZ-D6; format: in vivo, rat; conditions: IV
Protocol: (§1) Three rats per group were used for each biodistribution study. While under isoflurane anesthesia, 0.2 mL of a saline solution containing 20 μCi of radioactive tracer was injected into the femoral vein. The rats were sacrificed at the time indicated by cardiac excision while under isoflurane anesthesia. Organs of interest were removed and weighed, and the radioactivity was counted. The percent dose per organ was calculated by comparing the tissue counts to counts of 1% of the initial dose (100 times diluted aliquots of the injected material) measured at the same time. Regional brain distribution in rats was measured after an iv injection of the radioactive tracer. Samples from different brain regions (cortex, striatum, hippocampus, cerebellum and hypothalamus) were dissected, weighed and counted. The percentage dose/g of each sample was calculated by comparing sample counts with the counts of the diluted initial dose described above. The ratio was calculated by dividing the percentage dose/g of each region by that of the cerebellum. The cerebellum was used as the reference region for calculating the ratio of target to non-target binding, because only a trace amount of VMAT2 binding site is present in the cerebellum.

[2] = molecular target: T1, VMAT2 (Rattus norvegicus, UniProt Q01827); experiment: Regional brain distribution and ratio vs cerebellum in rats (VMAT2 tracers); format: in vivo; conditions: IV
T1 construct: from tissue; host or cells: live rats (normal male CD rats), dissected brain regions
Protocol: as §1

T1 sequence (Q01827 whole entry): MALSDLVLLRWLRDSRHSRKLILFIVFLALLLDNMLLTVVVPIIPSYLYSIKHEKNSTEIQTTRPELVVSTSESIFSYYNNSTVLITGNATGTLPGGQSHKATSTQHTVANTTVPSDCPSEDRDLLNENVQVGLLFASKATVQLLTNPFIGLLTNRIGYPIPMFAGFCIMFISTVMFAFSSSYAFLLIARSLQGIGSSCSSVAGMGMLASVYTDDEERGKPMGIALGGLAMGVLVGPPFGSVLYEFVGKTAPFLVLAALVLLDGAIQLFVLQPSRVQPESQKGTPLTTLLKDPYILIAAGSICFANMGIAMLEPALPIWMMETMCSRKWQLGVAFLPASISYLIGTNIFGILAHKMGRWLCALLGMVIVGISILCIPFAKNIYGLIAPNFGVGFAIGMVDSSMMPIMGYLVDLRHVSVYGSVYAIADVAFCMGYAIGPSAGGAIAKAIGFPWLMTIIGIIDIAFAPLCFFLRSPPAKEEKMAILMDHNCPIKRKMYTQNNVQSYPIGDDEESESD

For `COc1cc2c(cc1OCCC[18F])CCN1C[C@@H](CC(C)C)[C@H](O)C[C@H]21` [^18F-FP-(+)DTBZ, reference compound], the “Biodistribution Blood” value ([1]; 2 min) was 0.24 ± 0.03 % dose/g, the “Biodistribution Bone” value ([1]; 2 min) was 0.45 ± 0.03 % dose/g and the “Biodistribution Brain” value ([1]; 2 min) was 0.83 ± 0.06 % dose/g. The “Biodistribution Heart” value ([1]; 2 min) was 0.96 ± 0.08 % dose/g, the “Biodistribution Kidney” value ([1]; 2 min) was 2.66 ± 0.15 % dose/g and the “Biodistribution Liver” value ([1]; 2 min) was 2.28 ± 0.04 % dose/g. For the same molecule, the “Biodistribution Lung” value ([1]; 2 min) was 1.03 ± 0.03 % dose/g, the “Biodistribution Muscle” value ([1]; 2 min) was 0.11 ± 0.02 % dose/g and the “Biodistribution Pancreas” value ([1]; 2 min) was 2.29 ± 0.36 % dose/g. The “Biodistribution Skin” value ([1]; 2 min) was 0.19 ± 0.03 % dose/g, the “Biodistribution Spleen” value ([1]; 2 min) was 1.19 ± 0.10 % dose/g and the “Biodistribution Blood” value ([1]; 60 min) was 0.12 ± 0.00 % dose/g. For the same molecule, the “Biodistribution Bone” value ([1]; 60 min) was 1.13 ± 0.07 % dose/g, the “Biodistribution Brain” value ([1]; 60 min) was 0.35 ± 0.03 % dose/g and the “Biodistribution Heart” value ([1]; 60 min) was 0.22 ± 0.03 % dose/g. For the same molecule, the “Biodistribution Kidney” value ([1]; 60 min) was 0.63 ± 0.05 % dose/g, the “Biodistribution Liver” value ([1]; 60 min) was 2.59 ± 0.21 % dose/g and the “Biodistribution Lung” value ([1]; 60 min) was 0.41 ± 0.03 % dose/g. For the same molecule, the “Biodistribution Muscle” value ([1]; 60 min) was 0.10 ± 0.01 % dose/g, the “Biodistribution Pancreas” value ([1]; 60 min) was 4.48 ± 0.27 % dose/g and the “Biodistribution Skin” value ([1]; 60 min) was 0.24 ± 0.03 % dose/g. For the same molecule, the “Biodistribution Spleen” value ([1]; 60 min) was 0.50 ± 0.04 % dose/g, the “Biodistribution Blood” value ([1]; 120 min) was 0.07 ± 0.01 % dose/g and the “Biodistribution Bone” value ([1]; 120 min) was 1.86 % dose/g and 1.86 ± 0.24 % dose/g. For the same molecule, the “Biodistribution Brain” value ([1]; 120 min) was 0.26 % dose/g and 0.26 ± 0.03 % dose/g, the “Biodistribution Heart” value ([1]; 120 min) was 0.16 ± 0.01 % dose/g and the “Biodistribution Kidney” value ([1]; 120 min) was 0.45 ± 0.02 % dose/g. For the same molecule, the “Biodistribution Liver” value ([1]; 120 min) was 2.12 ± 0.20 % dose/g, the “Biodistribution Lung” value ([1]; 120 min) was 0.31 ± 0.02 % dose/g and the “Biodistribution Muscle” value ([1]; 120 min) was 0.07 ± 0.00 % dose/g. The “Biodistribution Pancreas” value ([1]; 120 min) was 3.56 ± 0.42 % dose/g, the “Biodistribution Skin” value ([1]; 120 min) was 0.17 ± 0.01 % dose/g and the “Biodistribution Spleen” value ([1]; 120 min) was 0.37 ± 0.05 % dose/g. For the same molecule, the “Ratio vs. Cerebellum: Cerebellum” value ([2]; 2 min) was 1.00 ± 0.00, the “Ratio vs. Cerebellum: Cortex” value ([2]; 2 min) was 1.21 ± 0.04 and the “Ratio vs. Cerebellum: Hippocampus” value ([2]; 2 min) was 1.19 ± 0.03. For the same molecule, the “Ratio vs. Cerebellum: Hypothalamus” value ([2]; 2 min) was 1.57 ± 0.04, the “Ratio vs. Cerebellum: Remainder” value ([2]; 2 min) was 1.23 ± 0.03 and the “Ratio vs. Cerebellum: Striatum” value ([2]; 2 min) was 1.66 ± 0.15. The “Regional Brain Distribution Cerebellum” value ([2]; 2 min) was 0.68 ± 0.06 % dose/gram, the “Regional Brain Distribution Cortex” value ([2]; 2 min) was 0.82 ± 0.07 % dose/gram and the “Regional Brain Distribution Hippocampus” value ([2]; 2 min) was 0.80 ± 0.07 % dose/gram. The “Regional Brain Distribution Hypothalamus” value ([2]; 2 min) was 1.06 ± 0.10 % dose/gram, the “Regional Brain Distribution Remainder” value ([2]; 2 min) was 0.83 ± 0.06 % dose/gram and the “Regional Brain Distribution Striatum” value ([2]; 2 min) was 1.12 ± 0.04 % dose/gram. The “Ratio vs. Cerebellum: Cerebellum” value ([2]; 60 min) was 1.00 ± 0.00, the “Ratio vs. Cerebellum: Cortex” value ([2]; 60 min) was 1.13 ± 0.09 and the “Ratio vs. Cerebellum: Hippocampus” value ([2]; 60 min) was 1.64 ± 0.19. For the same molecule, the “Ratio vs. Cerebellum: Hypothalamus” value ([2]; 60 min) was 3.91 ± 0.37, the “Ratio vs. Cerebellum: Remainder” value ([2]; 60 min) was 1.68 ± 0.07 and the “Ratio vs. Cerebellum: Striatum” value ([2]; 60 min) was 5.66 and 5.66 ± 0.72. For the same molecule, the “Regional Brain Distribution Cerebellum” value ([2]; 60 min) was 0.19 ± 0.02 % dose/gram, the “Regional Brain Distribution Cortex” value ([2]; 60 min) was 0.21 ± 0.01 % dose/gram and the “Regional Brain Distribution Hippocampus” value ([2]; 60 min) was 0.30 ± 0.01 % dose/gram. For the same molecule, the “Regional Brain Distribution Hypothalamus” value ([2]; 60 min) was 0.73 ± 0.11 % dose/gram, the “Regional Brain Distribution Remainder” value ([2]; 60 min) was 0.31 ± 0.02 % dose/gram and the “Regional Brain Distribution Striatum” value ([2]; 60 min) was 1.04 ± 0.05 % dose/gram. The “Ratio vs. Cerebellum: Cerebellum” value ([2]; 120 min) was 1.00 ± 0.00, the “Ratio vs. Cerebellum: Cortex” value ([2]; 120 min) was 1.11 ± 0.09 and the “Ratio vs. Cerebellum: Hippocampus” value ([2]; 120 min) was 1.79 ± 0.12. For the same molecule, the “Ratio vs. Cerebellum: Hypothalamus” value ([2]; 120 min) was 4.04 ± 0.66, the “Ratio vs. Cerebellum: Remainder” value ([2]; 120 min) was 1.59 ± 0.09 and the “Ratio vs. Cerebellum: Striatum” value ([2]; 120 min) was 6.54 ± 0.59. For the same molecule, the “Regional Brain Distribution Cerebellum” value ([2]; 120 min) was 0.13 ± 0.01 % dose/gram, the “Regional Brain Distribution Cortex” value ([2]; 120 min) was 0.15 ± 0.02 % dose/gram and the “Regional Brain Distribution Hippocampus” value ([2]; 120 min) was 0.24 ± 0.03 % dose/gram. The “Regional Brain Distribution Hypothalamus” value ([2]; 120 min) was 0.54 ± 0.11 % dose/gram, the “Regional Brain Distribution Remainder” value ([2]; 120 min) was 0.21 ± 0.02 % dose/gram and the “Regional Brain Distribution Striatum” value ([2]; 120 min) was 0.87 ± 0.12 % dose/gram.
